Data: patent publication US12049518B2, “Pharmacokinetics and cholecystokinin-2 receptor (CCK2R) targeting for diagnosis and therapy” (Medizinische Universitat Innsbruck, priority 2017, dated 2024)
Read-outs that look alike come from different tables or passages of the source. Where a SMILES comes first, the peptide text is derived from it. [ ]: non-standard residue; d: D form. The star is where a group is joined. DOTA = O=C(O)CN1CCN(CC(=O)O)CCN(CC(=O)*)CCN(CC(=O)O)CC1; 1Nal = N[C@@H](Cc1cccc2ccccc12)C(=O)O; NMeNle = CCCC[C@H](NC)C(=O)O

Legend:
human CCK2R = molecular target: T1, human CCK2R (Homo sapiens, UniProt P32239); assay: CCK2R competition binding assay against [125I]Tyr12-gastrin-I on A431-CCK2R cells
T1 construct: expressed in transfected cells; host or cells: A431 human epidermoid carcinoma cells (A431-CCK2R), plasmid pCR3.1, provided by Dr. Luigi Aloj
T1 sequence (P32239 1-447): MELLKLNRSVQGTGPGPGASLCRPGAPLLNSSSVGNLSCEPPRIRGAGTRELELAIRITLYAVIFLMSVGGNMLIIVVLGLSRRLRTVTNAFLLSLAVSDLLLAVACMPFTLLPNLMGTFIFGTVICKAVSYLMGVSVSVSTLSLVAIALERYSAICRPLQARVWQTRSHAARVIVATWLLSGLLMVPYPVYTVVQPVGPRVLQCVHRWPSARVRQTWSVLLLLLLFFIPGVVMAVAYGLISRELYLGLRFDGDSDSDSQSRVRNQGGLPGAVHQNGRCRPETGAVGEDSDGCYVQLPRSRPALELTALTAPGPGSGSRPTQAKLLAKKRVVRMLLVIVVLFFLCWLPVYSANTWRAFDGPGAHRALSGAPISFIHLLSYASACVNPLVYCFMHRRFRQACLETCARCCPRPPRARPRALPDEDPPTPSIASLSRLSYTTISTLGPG
Description: Affinity for CCK2R was studied in A431 human epidermoid carcinoma cells stably transfected with the plasmid pCR3.1 containing the full coding sequence for the human CCK2R (A431-CCK2R) kindly provided by Dr. Luigi Aloj (Aloj L et al., J Nucl Med 2004, 45: 485-494). […] Radioiodination of gastrin-1 was carried out using the chloramine-T method. Non-carrier-added [^125I-Tyr^12]gastrind was obtained by HPLC purification and stored in aliquots at −20° C. Binding assays were carried out in 96-well filter plates (MultiScreenHTS-FB, Merck Group, Darmstadt, Germany) pretreated with 10 mM TRIS/139 mM NaCl pH 7.4 (2×250 μl). For the assay a number of 200,000-400,000 A431-CCK2R cells per well was prepared in 35 mM HEPES buffer pH 7.4 containing 10 mM MgCl2, 14 μM bacitracin and 0.5% BSA (a hypotonic solution disturbing the integrity of the cell membranes). The cells were incubated in triplicates with increasing concentrations of the peptidomimetics (0.0003 to 10,000 nM, for example 0.001 to 1000 nM) and [^125I-Tyr^12]gastrin-I (20,000-60,000 cpm) for 1 h at RT. Incubation was interrupted by filtration of the medium and rapid rinsing with ice-cold 10 mM TRIS/139 mM NaCl pH 7.4 (2×200 μl) and the filters were counted in the gamma-counter. Half maximal inhibitory concentration (IC50) values were calculated following nonlinear regression with Origin software (Microcal Origin 6.1, Northampton, MA) and a representative assay was chosen for comparison.

[1] = biodistribution: uptake in normal tissues; format: in vivo, athymic BALB/c nude mice
Description: Biodistribution studies evaluating the tumour uptake of the radiolabelled inventive CCK2R targeting peptide analogues were performed in 7-week-old female athymic BALB/c nude mice (Charles River, Sulzfeld, Germany). All animal experiments were conducted in compliance with the Austrian animal protection laws and with the approval of the Austrian Ministry of Science. For the induction of tumour xenografts, A431-CCK2R and A431-mock cells were injected subcutaneously in the right and left flank respectively (2 million cells in 200 μl). When tumours had reached a size of approximately 0.2 ml biodistribution studies were carried out. Groups of 4 mice were injected intravenously via a lateral tail vein with the peptidomimetics of the present invention, labelled with ^111In (approximately 0.2 MBq and 0.02 nmol peptidomimetic), with ^68Ga (approximately 0.8 MBq and 0.02-0.03 nmol peptidomimetic), with ^177Lu (approximately 0.5 MBq and 0.02 nmol peptidomimetic) or with ^99mTc (approximately 0.3 MBq and 0.02 nmol peptidomimetic). After a time period of 1 or 4 h post-injection (p.i.) the animals were sacrificed by cervical dislocation, tumours and other tissues (blood, lung, heart, muscle, bone, spleen, intestine, liver, kidneys, stomach, pancreas) were removed, weighed, and their radioactivity measured in the gamma counter. Results were expressed as percentage of injected activity per gram tissue (% IA/g) and tumour to organ activity ratios were calculated from the activity measured in the dissected tissues. In FIG. 4 the results of the biodistribution studies at 4 h p.i. are summarized for the ^111In-labelled peptidomimetics of the present invention in comparison with ^111In-DOTA-MGS1 and ^111In-DOTA-MGS4 (Klingler M et al., Eur J Nucl Med Mol Imaging 2017, 44: S228). In FIG. 5 the results for the model peptidomimetics of the present invention, DOTA-MGS5 and HYNIC-MGS5, radiolabelled with different radiometals are shown for different time points of 1 or 4 h p.i. […] The uptake in A431-mock tumour xenografts with values <1% IA/g was very low confirming the high receptor-specific tumour uptake. […] A combination of high stability and increased protein binding in vivo seems therefore to result in an optimal protection of the radioligand against enzymatic degradation in blood allowing reaching an extremely high tumour uptake.

serum proteins = assay: protein binding to serum proteins (Sephadex G-50 size-exclusion chromatography); format: in vitro ADME; settings: 37° C.; for fraction unbound at 4 h, 500 pmol/mL / fraction unbound at 24 h, 500 pmol/mL: fresh human serum; for fraction unbound at 4 h, 500 pmol/mL: read-out: Percentage of radioligand bound to serum proteins after 4 h incubation (converted); for fraction unbound at 24 h, 500 pmol/mL: read-out: Percentage of radioligand bound to serum proteins after 24 h incubation (converted); for Percentage of radioligand bound to serum proteins after 24 h incubation: human serum
Description: Additionally, protein binding to serum proteins was investigated. For this purpose the ^111In-labelled peptidomimetics were incubated in duplicates in fresh human serum at 37° C. (500 pmol/mL) and analyzed after 4 and 24 h by Sephadex G-50 size-exclusion chromatography (GE Healthcare Illustra, Little Chalfont, UK). The percentage of protein binding was determined by measuring the column and the eluate in a 2480 Wizard 2 automatic gamma-counter (Perkin Elmer Life Sciences and Analytical Sciences, Turku, F).

[2] = in vivo, Nock et al. 2014; cited from earlier work
[3] = stability in vivo (radio-HPLC of blood sample); settings: BALB/c mice, i.v., 10 min p.i.
Description: To further characterise the stability of the radiolabelled peptidomimetics in vivo, metabolic studies were carried out in 5-6-week-old female BALB/c mice (Charles River, Sulzfeld, Germany) injected intravenously with the ^111In- and […] peptidomimetics. All animal experiments were conducted in compliance with the Austrian animal protection laws and with the approval of the Austrian Ministry of Science. To allow monitoring of the metabolites by radio-HPLC, mice were injected with a higher amount of radioactivity (5-15 MBq ^111In and 20-40 MBq ^177Lu, corresponding to 1-2 nmol total peptide) through a lateral tail vein and euthanized by cervical dislocation 10 or 30 min post injection (p.i.). A sample of blood was collected and the degradation was assessed by radio-HPLC.

[4] = displacement of [125I]Tyr12-gastrin-I, A431-CCK2R cells, 1 h at RT, read-out: IC50
[5] = female, athymic BALB/c nude, mouse, kidneys, iv, total radioactivity, 1 or 4 h p.i. (111In-labelled series: 4 h p.i.), read-out: kidney uptake
[6] = CCK2R expressing organ, 1 or 4 h p.i.

CCCC[C@@H](C(=O)N[C@@H](CC(=O)O)C(=O)N[C@@H](Cc1cccc2ccccc12)C(N)=O)N(C)C(=O)[C@H](Cc1c[nH]c2ccccc12)NC(=O)CNC(=O)[C@H](Cc1ccc(O)cc1)NC(=O)[C@H](C)NC(=O)[C@@H](CCC(=O)O)NC(=O)CN1CCN(CC(=O)O)CCN(CC(=O)O)CCN(CC(=O)O)CC1 [DOTA-MGS5, DOTA-DGlu-Ala-Tyr-Gly-Trp-(N-Me)Nle-Asp-1Nal-NH2]
IC50 (human CCK2R; [4]): 0.4 ± 0.2 nM | tissue uptake [1, 5]: 4 to 6 %ID/g | tissue uptake ([1]; female, athymic BALB/c nude, mouse, pancreas, iv, total radioactivity, CCK2R expressing organ, 1 or 4 h p.i., read-out: uptake in pancreas): 2 to 3 %ID/g | tissue uptake ([1]; female, athymic BALB/c nude, mouse, stomach, iv, total radioactivity, CCK2R expressing organ, 1 or 4 h p.i., read-out: uptake in stomach): 5 to 8 %ID/g

CCCC[C@@H](C(=O)N[C@@H](CC(=O)O)C(=O)N[C@@H](Cc1ccc2ccccc2c1)C(N)=O)N(C)C(=O)[C@H](Cc1c[nH]c2ccccc12)NC(=O)CNC(=O)[C@H](Cc1ccc(O)cc1)NC(=O)[C@H](C)NC(=O)[C@@H](CCC(=O)O)NC(=O)CN1CCN(CC(=O)O)CCN(CC(=O)O)CCN(CC(=O)O)CC1 [DOTA-MGS5-2, DOTA-DGlu-Ala-Tyr-Gly-Trp-(N-Me)Nle-Asp-2Nal-NH2]
IC50 (human CCK2R; [4]): 1.6 ± 0.4 nM

CCCC[C@@H](C(=O)N[C@@H](CC(=O)O)C(=O)N[C@@H](Cc1cccc2ccccc12)C(N)=O)N(C)C(=O)[C@H](Cc1c[nH]c2ccccc12)NC(=O)CNC(=O)[C@H](Cc1ccc(O)cc1)NC(=O)[C@@H]1CCCN1C(=O)[C@@H](CCC(=O)O)NC(=O)CN1CCN(CC(=O)O)CCN(CC(=O)O)CCN(CC(=O)O)CC1 [DOTA-MGS8, DOTA-DGlu-Pro-Tyr-Gly-Trp-(N-Me)Nle-Asp-1Nal-NH2] ({DOTA}-[dE]PYGW[NMeNle]D[1Nal]-NH2)
IC50 (human CCK2R; [4]): 1.6 ± 0.2 nM

CCCC[C@@H](C(=O)N[C@@H](CC(=O)O)C(=O)N[C@@H](Cc1cccc2ccccc12)C(N)=O)N(C)C(=O)[C@H](Cc1c[nH]c2ccccc12)NC(=O)CNC(=O)[C@@H]1CCCN1C(=O)[C@H](Cc1ccc(O)cc1)NC(=O)[C@@H](CCC(=O)O)NC(=O)CN1CCN(CC(=O)O)CCN(CC(=O)O)CCN(CC(=O)O)CC1 [DOTA-MGS10, DOTA-DGlu-Tyr-Pro-Gly-Trp-(N-Me)Nle-Asp-1Nal-NH2] ({DOTA}-[dE]YPGW[NMeNle]D[1Nal]-NH2)
IC50 (human CCK2R; [4]): 0.9 ± 0.2 nM

CSCC[C@H](NC(=O)[C@H](Cc1c[nH]c2ccccc12)NC(=O)CNC(=O)[C@H](Cc1ccc(O)cc1)NC(=O)[C@H](C)NC(=O)[C@@H](CCC(=O)O)NC(=O)[C@@H](CCC(=O)O)NC(=O)[C@@H](CCC(=O)O)NC(=O)[C@@H](CCC(=O)O)NC(=O)[C@@H](CCC(=O)O)NC(=O)[C@@H](CCC(=O)O)NC(=O)CN1CCN(CC(=O)O)CCN(CC(=O)O)CCN(CC(=O)O)CC1)C(=O)N[C@@H](CC(=O)O)C(=O)N[C@@H](Cc1ccccc1)C(N)=O [PP-F11, reference compound]
IC50 (human CCK2R): 0.4 ± 0.1 nM

CCCC[C@@H](C(=O)N[C@@H](CC(=O)O)C(=O)N[C@@H](Cc1cccc2ccccc12)C(N)=O)N(C)C(=O)[C@H](Cc1c[nH]c2ccccc12)NC(=O)CNC(=O)[C@H](Cc1ccc(O)cc1)NC(=O)[C@H](C)NC(=O)[C@@H](CCC(=O)O)NC(=O)CN1CCN(CC(=O)O)CCN(CC(=O)O)CCN(CC(=O)O)CC1 [^68Ga-DOTA-MGS5, metal not drawn]
tissue uptake ([1]; female, athymic BALB/c nude, mouse, blood, lung and heart, iv, total radioactivity, 1 or 4 h p.i., read-out: unspecific tissue uptake in blood, lung and heart): 1 to 2 %ID/g

CCCC[C@@H](C(=O)N[C@@H](CC(=O)O)C(=O)N[C@@H](Cc1cccc2ccccc12)C(N)=O)N(C)C(=O)[C@H](Cc1c[nH]c2ccccc12)NC(=O)CNC(=O)[C@H](Cc1ccc(O)cc1)NC(=O)[C@H](C)NC(=O)[C@@H](CCC(=O)O)NC(=O)c1ccc(NN)nc1 [^99mTc-HYNIC-MGS5, metal not drawn]
kidney uptake ([1]; 1 or 4 h p.i. (111In-labelled series: 4 h p.i.)): 8 % IA/g | uptake in pancreas [1, 6]: 7 % IA/g | uptake in stomach [1, 6]: 13 % IA/g

CSCC[C@H](NC(=O)[C@H](Cc1c[nH]c2ccccc12)NC(=O)CNC(=O)[C@H](Cc1ccc(O)cc1)NC(=O)[C@H](C)NC(=O)[C@@H](CCC(=O)O)NC(=O)CN1CCN(CC(=O)O)CCN(CC(=O)O)CCN(CC(=O)O)CC1)C(=O)N[C@@H](CC(=O)O)C(=O)N[C@@H](Cc1ccccc1)C(N)=O [^111In-DOTA-MG11, metal not drawn, reference compound] ({DOTA}-[dE]AYGWMDF-NH2)
fraction unbound at 4 h, 500 pmol/mL (serum proteins): 0.899 | fraction unbound at 24 h, 500 pmol/mL (serum proteins): 0.938 | Percentage of radioligand bound to serum proteins after 24 h incubation (serum proteins): < 10% | intact radiopeptide 5 min after injection [2]: 5%

CCCC[C@@H](C(=O)N[C@@H](CC(=O)O)C(=O)N[C@@H](Cc1cccc2ccccc12)C(N)=O)N(C)C(=O)[C@H](Cc1c[nH]c2ccccc12)NC(=O)CNC(=O)[C@H](Cc1ccc(O)cc1)NC(=O)[C@H](C)NC(=O)[C@@H](CCCCN)NC(=O)CN1CCN(CC(=O)O)CCN(CC(=O)O)CCN(CC(=O)O)CC1 [^111In-DOTA-MGS9, metal not drawn] ({DOTA}-[dK]AYGW[NMeNle]D[1Nal]-NH2)
fraction unbound at 4 h, 500 pmol/mL (serum proteins): 0.734 | fraction unbound at 24 h, 500 pmol/mL (serum proteins): 0.722 | Percentage of radioligand bound to serum proteins after 24 h incubation (serum proteins): ~30% | intact radioligand present in the blood at 10 min p.i. [3]: 93.9±1.2% | tissue uptake at 4 h ([1]; female, athymic BALB/c nude, mouse, intestine and liver, iv, 0.02 nmol peptidomimetic, total radioactivity, 4 h p.i.): ~2 %ID/g | tissue uptake [1, 5]: 20.7 ± 4.4 %ID/g
